Results: US12390477B2, “Ganaxolone for use in treating tuberous sclerosis complex and seizure disorders” (Immedica Pharma US Inc., priority 2021, dated 2025)

Columns and labels:
CYP2C19 = CYP2C19 (Homo sapiens, UniProt P33261); conditions: cited from earlier work
TSC-associated seizures = assay: Phase 2 open-label trial of adjunctive ganaxolone in TSC-related epilepsy (Part A): seizure frequency; assay type: in vivo, human
Procedure: A Phase 2 open-label 12 week trial of adjunctive ganavolone treatment (Part A) in tuberous sclerosis complex-related epilepsy followed by long-term treatment (Part B) was conducted. This was a multicenter study conducted at 7 sites in the United States.
The primary objectives were to assess preliminary safety and efficacy of ganavolone (GNX) as adjunctive therapy for the treatment of primary seizure types in patients with genetically- or clinically-confirmed TSC-related epilepsy through the end of the 12 week treatment period. The primary seizure types (focal motor seizures without impairment of consciousness or awareness, focal seizures with impairment of consciousness or awareness, focal seizures evolving to bilateral, tonic-clonic convulsive seizures, and generalized motor seizures including tonic-clonic, bilateral tonic, bilateral clonic, or atonic/drop seizures) are identified to be the most common, easily identifiable/countable by a parent/caregiver/legally authorized representative (LAR), and most consequential to the patient's quality of life.
(§1) This was an open label (OL) proof of concept study of adjunctive GNX treatment in patients with a confirmed clinical diagnosis of TSC and/or a mutation in either the TSC1 or TSC2 gene. The trial consisted of two parts: Part A consisted of a 4-week baseline period followed by a 12-week treatment period (4-week titration and 8-week maintenance). For patients not continuing in the OLE period (Part B), a 2-week taper period followed by a 2-week safety period followed. The main difference between Part A and Part B is the length of treatment, less frequent assessments, and the ability to alter drug doses (both GNX and other antiepileptic drug [AED] treatments which includes initiating and stopping other medications) based on investigator evaluation of the patient's clinical course during Part B. Patients with a seizure frequency reduction rate of ≥35% during the 12-week treatment period in Part A compared to baseline were eligible to continue into Part B (“OLE eligible”).
(§2) After meeting all eligibility criteria, approximately 30 patients aged 2 to 65 years (inclusive) with TSC-related epilepsy were enrolled to receive GNX for a total of 12 weeks (4 week titration, 8 week maintenance) in addition to their standard anti-seizure medication(s) (ASMs). Patients were titrated to 63 mg/kg/day (maximum 1800 mg/day) over 4 weeks, and then maintained at that dose for another 8 weeks. Patients who were not able to tolerate 63 mg/kg/day (or maximum 1800 mg/day) were eligible to be maintained on a lower dose after discussion with the medical monitor. A minimum dose of 33 mg/kg/day or 900 mg/day was generally required during the maintenance period.
Patients were required to complete a daily diary to determine GNX's effect on seizures. Days without seizures should also have been noted. Additional clinician and caregiver administered instruments were used to assess the efficacy of GNX in TSC and included: Caregiver Global Impression of Change (CGI-C)—Target Behavior and Clinical Global Impression—Improvement (CGI-I) caregiver and CGI-I clinician.
Ganaxolone was administered in increments of 15 mg/kg/day up to 63 mg/kg/day (maximum 1800 mg/day) given as an oral suspension with food. Patients weighing ≤28 kg were dosed on an mg/kg basis. Patients weighing >28 kg were dosed on a fixed regimen in increments of 450 mg/day up to 1800 mg/day.
Seizures: All seizure types and number of seizures were to be recorded daily in a diary. Days in which no seizures occur were also to be noted.
Primary Efficacy Endpoint: The primary efficacy endpoint was the percent change in 28-day primary seizure frequency through the end of the 12-week treatment period (4-week titration and 8-week maintenance) relative to the 4-week baseline. […]

[1] = Phase 2 open-label TSC trial (Part A): safety and tolerability, adverse events; assay type: in vivo, human
Description: as §1, §2
(§3) Pharmacokinetics, Safety and tolerability were assessed.
If the next dose was still not tolerated, the patient could drop back to the next lower dose step. A minimum dose of 33 mg/kg/day or 900 mg/day was generally required following the escalation period, during the maintenance period.

[2] = Phase 2 open-label TSC trial (Part A): ganaxolone plasma/serum concentration; assay type: in vivo, human
Procedure: as §3

[3] = test system: major motor seizures in CDD; assay: Marigold phase 3 trial of ganaxolone in CDKL5 deficiency disorder: seizure frequency; assay type: in vivo, human
Description: (§4) The Marigold Study was a phase 3 clinical trial of ganaxolone for the treatment of CDD. The trial met primary endpoint-median 28-day major motor seizure frequency reduction of 32.2 percent compared to 4.9 percent for placebo. […] The most frequent adverse event was somnolence.
(See, FIG. 10.) These effects are unlikely secondary to age or weight, which were balanced between the two groups.

[4] = Marigold phase 3 trial of ganaxolone in CDD: safety and tolerability; assay type: in vivo, human; conditions: CDD patients
Description: as §4

[5] = Human pharmacokinetic studies of ganaxolone and CBD; assay type: in vivo
Description: Without wishing to be bound by any particular theory, the inventors believe that the results of the clinical study can be explained by a previously unknown and unexpected drug interaction between ganaxolone and CBD. This is unexpected because ganaxolone is metabolized by CYP3A4/5. Landmark et al. Epilepsia 2021 62:857-873. […] Accordingly, it was unexpected that ganaxolone plasma concentrations, tolerability and efficacy would be affected by concomitant CBD. […] Thus, without wishing to be bound by any particular theory or mechanism, the unexpected drug-drug interaction could be a pharmacodynamic interaction.

CYP3A4/5 = conditions: cited from earlier work
[6] = test system: UGT1A9, UGT2B7, CYP1A2, CYP2B6, CYP2C8, CYP2C9 or CYP2C19; conditions: cited from earlier work

Sequence of CYP2C19 (P33261 whole entry): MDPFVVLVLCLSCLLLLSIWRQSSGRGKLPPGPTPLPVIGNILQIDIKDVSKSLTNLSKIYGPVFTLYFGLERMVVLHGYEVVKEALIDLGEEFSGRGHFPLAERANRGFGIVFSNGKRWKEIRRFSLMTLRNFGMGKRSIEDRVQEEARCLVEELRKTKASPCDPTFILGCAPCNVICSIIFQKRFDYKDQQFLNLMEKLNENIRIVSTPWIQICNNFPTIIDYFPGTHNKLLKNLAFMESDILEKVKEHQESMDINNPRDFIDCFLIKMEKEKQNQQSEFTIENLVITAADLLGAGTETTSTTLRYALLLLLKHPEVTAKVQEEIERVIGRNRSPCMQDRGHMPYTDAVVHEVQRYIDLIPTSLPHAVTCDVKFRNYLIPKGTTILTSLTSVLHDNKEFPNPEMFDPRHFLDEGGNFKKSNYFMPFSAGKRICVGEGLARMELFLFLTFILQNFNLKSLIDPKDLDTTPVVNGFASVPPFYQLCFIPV

## C=C(C)[C@@H]1CCC(C)=C[C@H]1c1c(O)cc(CCCCC)cc1O [EPIDIOLEX, cannabidiol]
CYP2C19; coadministration with clobazam (a CYP2C19 substrate)
  increase in plasma concentration of N-desmethylclobazam: 3 fold
CYP2C19; coadministration with clobazam
  effect on clobazam levels: no effect

## CC(=O)[C@H]1CC[C@H]2[C@@H]3CC[C@H]4C[C@](C)(O)CC[C@]4(C)[C@H]3CC[C@]12C [ganaxolone, 3α-hydroxy-3β-methyl-5α-pregnan-20-one]
TSC-associated seizures; 23 enrolled patients, 12-week treatment vs 4-week baseline
  median reduction in TSC-associated seizure frequency: 16.6%
TSC-associated seizures; all enrolled patients (n=23)
  patients achieving ≥50% reduction in TSC-associated seizure frequency: 30.4%
TSC-associated seizures; concomitant CBD 10 mg/kg/day or less
  efficacy in patients receiving concomitant EPIDIOLEX (CBD) at 10 mg/kg/day or less: robust efficacy
TSC-associated seizures; concomitant CBD above 10 mg/kg
  suppression of seizure (efficacy) with concomitant CBD above 10 mg/kg vs no CBD or CBD at or below 10 mg/kg: lower suppression of seizure
TSC-associated seizures; including those on concomitant cannabidiol and everolimus
  fraction of patients with robust reduction in TSC-associated seizures: ⅓
TSC-associated seizures; n=19
  median percent reduction in focal seizure frequencies: 25.2%
TSC-associated seizures; patients that received concomitant cannabidiol (n=12)
  patients achieving ≥50% reduction in TSC-associated seizure frequency: 25%
TSC-associated seizures; patients that received concomitant everolimus (n=11)
  patients achieving ≥50% reduction in TSC-associated seizure frequency: 36.4%
TSC-associated seizures; patients without concomitant cannabidiol (n=11) compared with patients on cannabidiol
  median percent reduction in TSC-associated seizures, no concomitant cannabidiol vs concomitant cannabidiol: greater median percent reduction
[1]; 23 enrolled
  patients that discontinued Part A, number: 6 patients
  patients that discontinued Part A, percent: 26.1%
[1]; 23 enrolled TSC patients
  fatigue, number of patients reporting: 3 patients
  fatigue, percent of patients reporting: 13.0%
  overall tolerability: generally well-tolerated
  patients with seizure assessed by the principal investigator as treatment related: One
  sedation, number of patients reporting: 3 patients
  sedation, percent of patients reporting: 13.0%
  somnolence, number of patients reporting: 10 patients
  somnolence, percent of patients reporting: 43.5%
  somnolence-related adverse events (somnolence, sedation, fatigue and lethargy), number of patients: 17 patients
[1]; concomitant CBD above 10 mg/kg
  ganaxolone tolerability issues with concomitant CBD above 10 mg/kg vs no CBD or CBD at or below 10 mg/kg: greater ganaxolone tolerability issues
[1]; concomitant cannabidiol (n=12)
  patients on concomitant cannabidiol experiencing somnolence-related adverse events: All patients
[1]; of the patients that discontinued
  patients that discontinued Part A because of an adverse event: 4
[2]; FIG. 3
  mean ganaxolone serum concentration in patients with somnolence-related adverse events relative to patients without: higher
[2]; FIG. 4
  mean ganaxolone plasma concentration with concomitant cannabidiol vs without: higher
[2]; FIG. 5, n=11
  ganaxolone plasma concentration in relation to concomitant cannabidiol dose: higher doses of cannabidiol were associated with higher plasma concentrations of ganaxolone
[3]; CDD patients, ganaxolone arm
  median 28-day major motor seizure frequency reduction: 32.2%
[3]; ganaxolone treatment group (N=49), FIG. 10
  efficacy in patients who experienced somnolence-related adverse events vs those who did not: reduced efficacy
[4]
  discontinuation rate in the active treatment arm: less than 5%
  most frequent adverse event: somnolence
  overall tolerability: generally well tolerated
[5]
  pharmacokinetic drug-drug interaction of ganaxolone and CBD: did not provide evidence of a pharmacokinetic drug-drug interaction
CYP3A4/5
  metabolizing enzyme: CYP3A4/5
[6]
  metabolism by enzymes implicated in CBD interactions with other drugs: not significantly metabolized
